According to article PMC6379637, “Consecutive influenza surveillance of neuraminidase mutations and neuraminidase inhibitor resistance in Japan” (Influenza and Other Respiratory Viruses, 2019):
“And” between values parts separate entries of the source, which are not always exact repeats. Equal values may be shown once.

How the values were obtained:
[1] = biological target: influenza B neuraminidase; assay type: biochemical, influenza B virus; conditions: read-out: IC50
[2] = biological target: A/H1N1pdm09 neuraminidase; assay type: biochemical, influenza A/H1N1pdm09 virus; conditions: read-out: IC50

Q: `CCOC(=O)C1=C[C@@H](OC(CC)CC)[C@H](NC(C)=O)[C@@H](N)C1` [Oseltamivir, oseltamivir phosphate] was tested. Which IC50 [1] did it give?
A: 14 nM

Q: How did the IC50 [2] turn out when `CCC(CC)[C@H](NC(C)=O)[C@@H]1[C@H](O)[C@@H](C(=O)O)C[C@H]1N=C(N)N` [Peramivir, peramivir hydrate] was run?
A: 0.45 nM and 0.65 nM and 0.26 nM
